Results from US11479587B2, “Cationic intrinsically disordered antimicrobial peptides” (priority 2016, dated 2022).
Converted amounts (≈) assume the structure as drawn. “And” between values parts separate entries of the source, which are not always exact repeats. Identical values can stand only once. Like-named read-outs stand apart in the source and are kept apart here. Residues, ends and D or L forms follow the SMILES beside them.

Experiments:
[1] = test system: methicillin-resistant S. aureus strain (ATCC 43300); assay type: cell-based, Staphylococcus aureus
Method: Furthermore, sensitivity of a methicillin-resistant S. aureus strain (ATCC 43300) was investigated for palmitoylated CIDAMPs in a microtiter plate screening model, with incubation in Mueller-Hinton medium at 37° C. for 18 h using resazurin as a marker for cell viability.
A sample of each culture was then diluted 40-fold in fresh broth and incubated at 37° C. for 1.5-3 h. […] All the plates were covered and incubated at 37° C. for 18 h.
(§1) Inhibition of bacterial growth was determined using resazurin as a marker for cell viability. Resazurin was added to each well, at 0.001% final concentration, and plates incubated at 37° C. for 2 h. Fluorescence intensity was measured, using F (top read), ex 560/10 nm, em 590/10 nm, using a Tecan M1000 Pro monochromator plate reader.

[2] = Cytotoxicity (resazurin) assay
How it was run: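 CC50 values were derived by fitting concentration-dependent percentage cytotoxicity to a dose–response function. The read-out was resazurin fluorescence (ex 560, em 590 nm; 100 μM, 3 h) after 20 h compound treatment of HEK293 cells at 37 °C in DMEM with 10% FBS.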

Hemolysis assay = assay type: cell-based
How it was run: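 Washed EDTA-blood erythrocytes in 5% PBS, pH 7.4, were rotated 1 h at 37° C with peptides at 0, 3, 10, 30, 60 μm. Hemoglobin release read at 540 nm as % of 0.1% Triton X-100 hemolysis; CC50 from dose-response curve of triplicates.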

A. baumannii ATCC 19606 = assay type: cell-based, Acinetobacter baumannii; settings: Mueller-Hinton medium
Method: as §1

E. coli ATCC 25922 = assay type: cell-based, Escherichia coli; settings: Mueller-Hinton medium
Method: as §1

P. aeruginosa ATCC 10145 = test: CFU-assay, P. aeruginosa-cidal activity; assay type: cell-based, Pseudomonas aeruginosa
S. aureus ATCC 6538 = test: CFU-assay, S. aureus-cidal activity; assay type: cell-based, Staphylococcus aureus
How it was run: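 Bactericidal CFU-assay in nutrient-deficient 10 mM sodium phosphate buffer pH 5.5 with 0.25% glucose, counting surviving colonies across twofold peptide dilutions from 300 μg/ml to 19 ng/ml. Output is minimal bactericidal concentration (e.g. MBC90, MBC100); some peptides also tested at pH 7.0.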

[3] = test system: Streptococcus pneumoniae ATCC 33400; test: CFU-assay, antimicrobial activity spectrum; assay type: cell-based; settings: pH 7.3, 0.25% glucose
[4] = test system: Streptococcus pyogenes ATCC 12344; test: CFU-assay, antimicrobial activity spectrum; assay type: cell-based
[5] = test system: Escherichia coli ATCC11775; test: CFU-assay, antimicrobial activity spectrum; assay type: cell-based
[6] = test system: Burkholderia cepacia ATCC 25416; test: CFU-assay, Burkholderia cepacia-cidal activity; assay type: cell-based
[7] = test system: Staphylococcus epidermidis ATCC 14990; test: CFU-assay, antimicrobial activity spectrum; assay type: cell-based; settings: pH 5.5, 0.25% glucose
[8] = test system: Klebsiella pneumoniae ATCC 13883; test: CFU-assay, Klebsiella pneumoniae-cidal activity; assay type: cell-based
[9] = test system: Salmonella typhimurium ATCC 13311; test: CFU-assay, antimicrobial activity spectrum; assay type: cell-based
[10] = test system: Candida albicans ATCC 24433; test: CFU-assay, Candida albicans-cidal activity; assay type: cell-based
Method: Thus, within the present invention, the antimicrobial activity is generally measured in nutrient deficient 10 mM sodium phosphate buffer pH 5.5, containing 0.25% glucose, using the CFU-assay according to Steinberg and Lehrer, 1997 (supra), unless otherwise indicated. The CFU-assay allows determination of the minimal bactericidal concentration (MBC, e.g., MBC90 and MBC100; i.e. the concentration of compound required to achieve a specified reduction in bacterial cell number (microbial death or killing)). […]
HR 1-17 affects C. albicans ATCC 24433 with highest activity at pH 5.5 in the absence of TSB in the medium (see Tables 12, 24). […] Furthermore, the substitution of any of the Arg residues by Gly leads to a dramatic reduction or loss of candidacidal activity (see Table 24).

[11] = standard conditions at pH 7.4, activity at concentration <32 pg/ml

For CCCCCCCCCCCCCCCC(=O)N[C@@H](CCCNC(=N)N)C(=O)NCC(=O)N[C@@H](CO)C(=O)N[C@@H](CCCNC(=N)N)C(=O)N[C@@H](CO)C(=O)NCC(=O)N[C@@H](CCC(N)=O)C(=O)N[C@@H](CO)C(=O)N[C@@H](CO)C(=O)N[C@@H](CCCNC(=N)N)C(=O)NCC(=O)N[C@@H](CCC(=O)O)C(=O)N[C@@H](CCCNC(=N)N)C(=O)N[C@@H](CCCNC(=N)N)C(=O)O [Pal-HR 1-11 2H2R-14] (HELM PEPTIDE1{[CCCCCCCCCCCCCCCC(=O)[*:2]].R.G.S.R.S.G.Q.S.S.R.G.E.R.R}$$$$V2.0), the “MIC, S. aureus ATCC 43300” value ([1]; Mueller-Hinton medium) was ≥8 µg/mL, the CC50 [2] was > 32 µg/mL and the HC50 (Hemolysis assay; erythrocytes, read-out: Hemolysis (CC50)) was > 300 µg/mL. The “MIC, A. baumannii ATCC 19606” value (A. baumannii ATCC 19606) was ≥4 µg/mL, the “MIC, E. coli ATCC 25922” value (E. coli ATCC 25922) was ≥8 µg/mL and the “MIC, C. neoformans ATCC 208821” value (C. neoformans) was ≥8 µg/mL.
In the case of CCCCCCCCCCCCCCCC(=O)N[C@@H](CO)C(=O)N[C@@H](Cc1c[nH]cn1)C(=O)N[C@@H](Cc1c[nH]cn1)C(=O)N[C@@H](CCCNC(=N)N)C(=O)N[C@@H](CS)C(=O)N[C@@H](CS)C(=O)N[C@@H](CCCNC(=N)N)C(=O)N[C@@H](CO)C(=O)N[C@@H](Cc1c[nH]cn1)C(=O)N[C@@H](CCCNC(=N)N)C(=O)N[C@@H](CS)C(=O)N[C@@H](CCCNC(=N)N)C(=O)N[C@@H](CCCNC(=N)N)C(=O)O [Pal-LCE3B56-68] (HELM PEPTIDE1{[CCCCCCCCCCCCCCCC(=O)[*:2]].S.H.H.R.C.C.R.S.H.R.C.R.R}$$$$V2.0), the “P. aeruginosa MBC90” value (P. aeruginosa ATCC 10145; pH 5.5) is reported as 0.088 µM, the “P. aeruginosa MBC100” value (P. aeruginosa ATCC 10145; pH 5.5) is reported as 0.176 µM and the MBC90 (P. aeruginosa ATCC 10145; pH 5.5, 0.25% glucose) is reported as 0.075 µg/mL (≈ 0.0388 µM). The MBC100 (P. aeruginosa ATCC 10145; pH 5.5, 0.25% glucose) was 0.3 µg/mL (≈ 0.155 µM), the “S. aureus MBC90” value (S. aureus ATCC 6538; pH 5.5) was 0.011 µM and the “S. aureus MBC100” value (S. aureus ATCC 6538; pH 5.5) was 0.078 µM. The MBC90 (S. aureus ATCC 6538; pH 5.5, 0.25% glucose) was <0.019 µg/mL, the MBC100 (S. aureus ATCC 6538; pH 5.5, 0.25% glucose) was 0.15 µg/mL (≈ 0.0776 µM) and the MBC90 [3] was 0.59 µg/mL (≈ 0.305 µM). The MBC100 [3] was 2.35 µg/mL (≈ 1.22 µM), the MBC90 ([4]; pH 6.0, 0.25% glucose) was 0.15 µg/mL (≈ 0.0776 µM) and the MBC100 ([4]; pH 6.0, 0.25% glucose) was 0.59 µg/mL (≈ 0.305 µM). The MBC90 ([4]; pH 7.3, 0.25% glucose) was 0.15 µg/mL (≈ 0.0776 µM), the MBC100 ([4]; pH 7.3, 0.25% glucose) was 0.3 µg/mL (≈ 0.155 µM) and the MBC90 ([5]; pH 5.5, 0.25% glucose) was 0.3 µg/mL (≈ 0.155 µM). For the same molecule, the MBC90 ([5]; pH 7.3, 0.25% glucose) was 0.59 µg/mL (≈ 0.305 µM), the MBC100 ([5]; pH 7.3, 0.25% glucose) was 1.18 µg/mL (≈ 0.611 µM) and the MBC90 ([6]; pH 5.5, 0.25% glucose) was >300 µg/mL. For the same molecule, the MBC100 ([6]; pH 5.5, 0.25% glucose) was >300 µg/mL, the MB100 ([6]; pH 7.3) was 4.9 µM and the MBC90 ([6]; pH 7.3) was 2.4 µM. It also gave an MBC90 ([6]; pH 7.3, 0.25% glucose) of 4.7 µg/mL, an MBC100 ([6]; pH 7.3, 0.25% glucose) of 9.38 µg/mL (≈ 4.85 µM) and an MBC100 ([6]; pH 7.3, 0.25% glucose, listed as palmitoyl-LCE3B56-68) of 9.375 µg/mL (≈ 4.85 µM). It also gave an MBC90 [7] of 0.3 µg/mL (≈ 0.155 µM), an MBC100 [7] of 0.3 µg/mL (≈ 0.155 µM) and an MBC90 ([8]; pH 5.5) of 0.052 µM. For the same molecule, the MBC100 ([8]; pH 5.5) was 4.9 µM, the MBC90 ([8]; pH 5.5, 0.25% glucose) was 0.15 µg/mL and the MBC100 ([8]; pH 5.5, 0.25% glucose) was 9.375 µg/mL. The MBC90 ([8]; pH 7.3, 0.25% glucose) was 2.35 µg/mL, the MBC100 ([8]; pH 7.3, 0.25% glucose) was 4.7 µg/mL and the MBC90 ([9]; pH 5.5) was 0.02 µM. It also gave an MBC100 ([9]; pH 5.5) of 0.155 µM, an MBC90 ([9]; pH 5.5, 0.25% glucose) of 0.038 µg/mL and an MBC100 ([9]; pH 5.5, 0.25% glucose) of 0.3 µg/mL. For the same molecule, the MBC90 ([9]; pH 7.3, 0.25% glucose) was 1.18 µg/mL, the MBC100 ([9]; pH 7.3, 0.25% glucose) was 2.35 µg/mL and the “MIC, S. aureus ATCC 43300” value ([1]; ATCC 43300, 18 h) was ≥16 µg/mL. The CC50 [2] was > 32 µg/mL and > 16.6 µM, the CC50 (Hemolysis assay) was > 100 µg/mL and the HC50 at 1 h (Hemolysis assay; human, washed erythrocytes from EDTA-blood, pH 7.4) was > 78 µM. The “MIC, C. albicans ATCC 90028” value (C. albicans ATCC 928; ATCC 928) was ≥1 µg/mL, the MIC (C. albicans ATCC 928; ATCC 928, 18 h, pH 7.4) was 1 to 32 µg/mL and the “Antifungal activity, C. albcans ATCC90028” value (C. albicans ATCC 928; [11]) was “A (A-active)”. The “MIC, C. neoformans ATCC 208821” value (C. neoformans) was ≥0.25 µg/mL and the “Antifungal activity, C. neoformans ATCC 208821” value (C. neoformans; [11]) was “A (A-active)”.
For “GRHGSGLGHSSSHGQHGSGSGRSSSRGPY (Peptide derived from human hornerin (HR 1-17))”, the MBC90 (P. aeruginosa ATCC 10145; pH 5.0, 0.25% glucose) was 0.038 µg/mL and 0.0375 µg/mL, the MBC100 (P. aeruginosa ATCC 10145; pH 5.0, 0.25% glucose) was 0.15 µg/mL and the MBC100 (P. aeruginosa ATCC 10145; pH 5.5, 0.25% glucose) was 0.15 µg/mL and 0.3 µg/mL. The MBC90 (P. aeruginosa ATCC 10145; pH 5.5, 1% TSB) was 0.59 µg/mL, the MBC100 (P. aeruginosa ATCC 10145; pH 5.5, 1% TSB) was 18.75 µg/mL and the MBC90 (S. aureus ATCC 6538; pH 5.5, 1% TSB) was >300 µg/mL. For the same molecule, the MBC100 (S. aureus ATCC 6538; pH 5.5, 1% TSB) was >300 µg/mL, the MBC90 ([5]; pH 5.5, 1% TSB) was >300 µg/mL and the MBC100 ([5]; pH 5.5, 1% TSB) was >300 µg/mL. The MBC90 [10] was 0.56 µM, the MBC90 ([10]; pH 5.5, 0.25% glucose) was 1.18 µg/mL and the MBC100 ([10]; pH 5.5, 0.25% glucose) was 9.38 µg/mL. The MBC100 ([10]; pH 5.5, 1% TSB) was 150 µg/mL and >300 µg/mL, the MBC90 ([10]; pH 7.2, 1.% TSB) was >300 µg/mL and the MBC100 ([10]; pH 7.2, 1.% TSB) was >300 µg/mL. For the same molecule, the MBC90 ([6]; pH 5.5, 0.25% glucose) was >300 µg/mL and the MBC100 ([6]; pH 5.5, 0.25% glucose) was >300 µg/mL.
